Experimental data as given in ChEMBL document CHEMBL1914315, “Fijimycins A-C, three antibacterial etamycin-class depsipeptides from a marine-derived Streptomyces sp” (2011).
Values after ≈ are worked out from the molar mass of the structure shown.

Key:
Type in all cases: functional
Staphylococcus aureus [1] = assay: Antimicrobial activity against methicillin-resistant Staphylococcus aureus ATCC 33591; conditions: read-out: MIC100
Staphylococcus aureus [2] = assay: Antimicrobial activity against methicillin-resistant Staphylococcus aureus Sanger 252; conditions: Sanger 252, read-out: MIC100
Staphylococcus aureus [3] = assay: Antimicrobial activity against methicillin-resistant Staphylococcus aureus UAMS 1182; conditions: read-out: MIC100

SMILES	MIC (Staphylococcus aureus [1])	MIC (Staphylococcus aureus [2])	MIC (Staphylococcus aureus [3])
CC(C)C[C@H]1NC(=O)[C@@H](NC(=O)c2ncccc2O)[C@@H](C)OC(=O)[C@@H](c2ccccc2)N(C)C(=O)[C@H](C)NC(=O)[C@H](C(C)C(C)C)N(C)C(=O)CN(C)C(=O)[C@H]2C[C@@H](O)CN2C1=O (stereo not given in full) [FIJIMYCIN A]	16 µg/mL (≈ 18.2 µM)	32 µg/mL (≈ 36.4 µM)	4 µg/mL (≈ 4.55 µM)
CC(C)C[C@H]1NC(=O)[C@@H](NC(=O)c2ncccc2O)[C@@H](C)OC(=O)[C@H](CC(C)C)N(C)C(=O)[C@H](C)NC(=O)[C@H](C(C)C(C)C)N(C)C(=O)CN(C)C(=O)[C@H]2C[C@@H](O)CN2C1=O (stereo not given in full) [FIJIMYCIN B]	> 32 µg/mL	–	> 32 µg/mL
CC(C)C[C@H]1NC(=O)[C@@H](NC(=O)c2ncccc2O)[C@@H](C)OC(=O)[C@H](c2ccccc2)N(C)C(=O)[C@H](CO)NC(=O)[C@H](C(C)C(C)C)N(C)C(=O)CN(C)C(=O)[C@H]2C[C@@H](O)CN2C1=O (stereo not given in full) [FIJIMYCIN C]	32 µg/mL (≈ 35.8 µM)	–	8 µg/mL (≈ 8.94 µM)
CC(C)C[C@H]1NC(=O)[C@@H](NC(=O)c2ncccc2O)[C@@H](C)OC(=O)[C@H](c2ccccc2)N(C)C(=O)[C@H](C)NC(=O)[C@H](C(C)C(C)C)N(C)C(=O)CN(C)C(=O)[C@H]2C[C@@H](O)CN2C1=O (stereo not given in full) [VIRIFOGRISEIN I]	16 µg/mL (≈ 18.2 µM)	16 µg/mL (≈ 18.2 µM)	4 µg/mL (≈ 4.55 µM)
